# Patent US12077503B2, “Substituted cyclic amides and their use as herbicides” (FMC CORPORATION, priority 2015, dated 2024)
# Legend:
# Format in all cases: in vivo
# Kochia (Kochia scoparia) [1] = assay: Test A preemergence; conditions: for Plant response rating, Kochia: 125 g ai/ha, preemergence, 0 to 100 scale (0 no effect, 100 complete control); for Kochia plant response rating (0 to 100 scale): Preemergence, 500 g ai/ha, 0 is no effect, 100 is complete control
# Description: (§1) Seeds of plant species selected from barnyardgrass (Echinochloa crus-galli), Kochia (Kochia scoparia), ragweed (common ragweed, Ambrosia elatior), ryegrass, Italian (Italian ryegrass, Lolium multiflorum), crabgrass, large (Digitaria sanguinalis), giant foxtail (Setaria faberii), green foxtail (Setaria viridis), morningglory (Ipomoea spp.), pigweed (Amaranthus retroflexus), velvetleaf (Abutilon theophrasti), wheat (Triticum aestivum), and corn (Zea mays) were planted into a blend of loam soil and sand and treated preemergence with a directed soil spray using test chemicals formulated in anon-phytotoxic solvent mixture which included a surfactant.
# (§2) At the same time, plants selected from these crop and weed species and also blackgrass (Alopecurus myosuroides), and Galium (catchweed bedstraw, Galium aparine) were planted in pots containing the same blend of loam soil and sand and treated with postemergence applications of test chemicals formulated in the same manner. Plants ranged in height from 2 to 10 cm and were in the one- to two-leaf stage for the postemergence treatment. Treated plants and untreated controls were maintained in a greenhouse for approximately 10 d, after which time all treated plants were compared to untreated controls and visually evaluated for injury. Plant response ratings, summarized in Table A, are based on a 0 to 100 scale where 0 is no effect and 100 is complete control. A dash (-) response means no test result.
# [2] = test system: barnyardgrass (Echinochloa crus-galli); assay: Test A preemergence; conditions: for Plant response rating, Barnyardgrass: 125 g ai/ha, preemergence, 0 to 100 scale (0 no effect, 100 complete control); for Barnyardgrass plant response rating (0 to 100 scale): Preemergence, 500 g ai/ha, 0 is no effect, 100 is complete control
# Description: as §1, §2
# [3] = test system: giant foxtail (Setaria faberii); assay: Test A preemergence; conditions: for Plant response rating, Foxtail, Giant: 125 g ai/ha, preemergence, 0 to 100 scale (0 no effect, 100 complete control); for Foxtail, Giant plant response rating (0 to 100 scale): Preemergence, 500 g ai/ha, 0 is no effect, 100 is complete control
# Description: as §1, §2
# [4] = test system: pigweed (Amaranthus retroflexus); assay: Test A preemergence; conditions: for Plant response rating, Pigweed: 125 g ai/ha, preemergence, 0 to 100 scale (0 no effect, 100 complete control); for Pigweed plant response rating (0 to 100 scale): Preemergence, 500 g ai/ha, 0 is no effect, 100 is complete control
# Description: as §1, §2
# [5] = test system: ragweed (common ragweed, Ambrosia elatior); assay: Test A preemergence; conditions: for Plant response rating, Ragweed: 125 g ai/ha, preemergence, 0 to 100 scale (0 no effect, 100 complete control)
# Description: as §1, §2
# [6] = test system: ryegrass, Italian (Italian ryegrass, Lolium multiflorum); assay: Test A preemergence; conditions: for Plant response rating, Ryegrass, Italian: 125 g ai/ha, preemergence, 0 to 100 scale (0 no effect, 100 complete control); for Ryegrass, Italian plant response rating (0 to 100 scale): Preemergence, 500 g ai/ha, 0 is no effect, 100 is complete control
# Description: as §1, §2
# [7] = test system: Galium (catchweed bedstraw, Galium aparine); assay: Test A postemergence; conditions: postemergence; for Galium plant response rating: 125 g ai/ha, visual injury rating on 0 to 100 scale (0 no effect, 100 complete control), approx. 10 d; for Plant response rating, Galium: 500 g ai/ha, 0 to 100 scale, 0 no effect, 100 complete control
# Description: as §1, §2
# Kochia (Kochia scoparia) [8] = assay: Test A postemergence; conditions: postemergence; for Kochia plant response rating: 125 g ai/ha, visual injury rating on 0 to 100 scale (0 no effect, 100 complete control), approx. 10 d; for Plant response rating, Kochia: 500 g ai/ha, 0 to 100 scale, 0 no effect, 100 complete control
# Description: as §1, §2
# [9] = test system: barnyardgrass (Echinochloa crus-galli); assay: Test A postemergence
# Description: as §1, §2
# [10] = test system: blackgrass (Alopecurus myosuroides); assay: Test A postemergence
# Description: as §1, §2
# corn (Zea mays) = assay: Test A postemergence; conditions: postemergence; for Corn plant response rating: 125 g ai/ha, visual injury rating on 0 to 100 scale (0 no effect, 100 complete control), approx. 10 d; for Plant response rating, Corn: 500 g ai/ha, 0 to 100 scale, 0 no effect, 100 complete control
# Description: as §1, §2
# [11] = test system: giant foxtail (Setaria faberii); assay: Test A postemergence; conditions: postemergence; for Foxtail, Giant plant response rating: 125 g ai/ha, visual injury rating on 0 to 100 scale (0 no effect, 100 complete control), approx. 10 d; for Plant response rating, Foxtail, Giant: 500 g ai/ha, 0 to 100 scale, 0 no effect, 100 complete control
# Description: as §1, §2
# [12] = test system: pigweed (Amaranthus retroflexus); assay: Test A postemergence; conditions: postemergence; for Pigweed plant response rating: 125 g ai/ha, visual injury rating on 0 to 100 scale (0 no effect, 100 complete control), approx. 10 d; for Plant response rating, Pigweed: 500 g ai/ha, 0 to 100 scale, 0 no effect, 100 complete control
# Description: as §1, §2
# [13] = test system: ragweed (common ragweed, Ambrosia elatior); assay: Test A postemergence; conditions: postemergence; for Ragweed plant response rating: 125 g ai/ha, visual injury rating on 0 to 100 scale (0 no effect, 100 complete control), approx. 10 d; for Plant response rating, Ragweed: 500 g ai/ha, 0 to 100 scale, 0 no effect, 100 complete control
# Description: as §1, §2
# [14] = test system: ryegrass, Italian (Italian ryegrass, Lolium multiflorum); assay: Test A postemergence; conditions: postemergence; for Ryegrass, Italian plant response rating: 125 g ai/ha, visual injury rating on 0 to 100 scale (0 no effect, 100 complete control), approx. 10 d; for Plant response rating, Ryegrass, Italian: 500 g ai/ha, 0 to 100 scale, 0 no effect, 100 complete control
# Description: as §1, §2
# [15] = test system: wheat (Triticum aestivum); assay: Test A postemergence; conditions: postemergence; for Wheat plant response rating: 125 g ai/ha, visual injury rating on 0 to 100 scale (0 no effect, 100 complete control), approx. 10 d; for Plant response rating, Wheat: 500 g ai/ha, 0 to 100 scale, 0 no effect, 100 complete control
# Description: as §1, §2
# [16] = test system: barnyardgrass (Echinochloa crus-galli); assay: Test B flooded paddy test; conditions: Flood, 0 to 100 scale where 0 is no effect and 100 is complete control, 13 to 15 d
# Method: (§3) Plant species in the flooded paddy test selected from rice (Oryra sativa), sedge, umbrella (small-flower umbrella sedge, Cyperus difformis), ducksalad (Heteranthera limosa), and barnyardgrass (Echinochloa crus-galli) were grown to the 2-leaf stage for testing. At time of treatment, test pots were flooded to 3 cm above the soil surface, treated by application of test compounds directly to the paddy water, and then maintained at that water depth for the duration of the test. Treated plants and controls were maintained in a greenhouse for 13 to 15 d, after which time all species were compared to controls and visually evaluated. Plant response ratings, summarized in Table B, are based on a scale of 0 to 100 where 0 is no effect and 100 is complete control. A dash (-) response means no test result.
# [17] = test system: ducksalad (Heteranthera limosa); assay: Test B flooded paddy test; conditions: Flood, 0 to 100 scale where 0 is no effect and 100 is complete control, 13 to 15 d
# Method: as §3
# rice (Oryra sativa) = assay: Test B flooded paddy test; conditions: Flood, 0 to 100 scale where 0 is no effect and 100 is complete control, 13 to 15 d
# Method: as §3
# [18] = test system: sedge, umbrella (small-flower umbrella sedge, Cyperus difformis); assay: Test B flooded paddy test; conditions: Flood, 0 to 100 scale where 0 is no effect and 100 is complete control, 13 to 15 d
# Method: as §3
# [19] = 500 g ai/ha, postemergence, 0 to 100 scale, 0 no effect, 100 complete control
# [20] = Postemergence, 125 g ai/ha, visual injury, 0 to 100 scale (0 no effect, 100 complete control), approx. 10 d
Structure (SMILES),"Plant response rating, Kochia (Kochia (Kochia scoparia) [1])",Kochia plant response rating (0 to 100 scale) (Kochia (Kochia scoparia) [1]),"Plant response rating, Barnyardgrass [2]",Barnyardgrass plant response rating (0 to 100 scale) [2],"Plant response rating, Foxtail, Giant [3]","Foxtail, Giant plant response rating (0 to 100 scale) [3]","Plant response rating, Pigweed [4]",Pigweed plant response rating (0 to 100 scale) [4],"Plant response rating, Ragweed [5]","Plant response rating, Ryegrass, Italian [6]","Ryegrass, Italian plant response rating (0 to 100 scale) [6]",Galium plant response rating [7],"Plant response rating, Galium [7]",Kochia plant response rating (Kochia (Kochia scoparia) [8]),"Plant response rating, Kochia (Kochia (Kochia scoparia) [8])","Plant response rating, Barnyardgrass [9, 19]","Plant response rating, Barnyardgrass [9, 20]","Plant response rating, Blackgrass [10, 19]","Plant response rating, Blackgrass [10, 20]",Corn plant response rating (corn (Zea mays)),further results
COc1cccc(C2CNC(=O)C2C(=O)Nc2cccc(F)c2F)c1 (racemic) [Compound 383],0,20,50,90,50,70,0,0,0,0,20,0,0,0,30,90,70,0,0,0,"Ragweed plant response rating (0 to 100 scale) ([5]; Preemergence, 500 g ai/ha, 0 is no effect, 100 is complete control): 0; Plant response rating, Corn (corn (Zea mays)): 0; Foxtail, Giant plant response rating [11]: 30; Plant response rating, Foxtail, Giant [11]: 50; Pigweed plant response rating [12]: 0; Plant response rating, Pigweed [12]: 0; Ragweed plant response rating [13]: 0; Plant response rating, Ragweed [13]: 20; Ryegrass, Italian plant response rating [14]: 20; Plant response rating, Ryegrass, Italian [14]: 30; Wheat plant response rating [15]: 0; Plant response rating, Wheat [15]: 0; Plant response rating, Barnyardgrass ([16]; 250 g ai/ha): 0; Plant response rating, Ducksalad ([17]; 250 g ai/ha): 30; Plant response rating, Rice (rice (Oryra sativa); 250 g ai/ha): 0; Plant response rating, Sedge, Umbrella ([18]; 250 g ai/ha): 0"
COc1c(F)ccc(NC(=O)C2C(=O)NCC2c2cccc(C(F)(F)F)c2)c1F (racemic) [Compound 386],0,0,80,80,80,90,0,0,0,30,50,50,60,0,0,80,70,70,50,40,"Plant response rating, Corn (corn (Zea mays)): 80; Foxtail, Giant plant response rating [11]: 70; Plant response rating, Foxtail, Giant [11]: 80; Pigweed plant response rating [12]: 0; Plant response rating, Pigweed [12]: 10; Ragweed plant response rating [13]: 0; Plant response rating, Ragweed [13]: 30; Ryegrass, Italian plant response rating [14]: 20; Plant response rating, Ryegrass, Italian [14]: 50; Wheat plant response rating [15]: 30; Plant response rating, Wheat [15]: 50; Plant response rating, Barnyardgrass ([16]; 500 g ai/ha): 60; Plant response rating, Ducksalad ([17]; 500 g ai/ha): 70; Plant response rating, Rice (rice (Oryra sativa); 500 g ai/ha): 15; Plant response rating, Sedge, Umbrella ([18]; 500 g ai/ha): 0"
